One experiment concerns the target T1, PTK2 enzyme (Homo sapiens, UniProt Q05397).
T1 construct: purchased Invitrogen PV3832
As to the kind of experiment: PTK2 enzyme test, Assay 2 (DELFIA, poly-Glu-Tyr substrate, antibody PT66). The following applies: Assay 2 (values marked *); 1 h pre-incubation, 0.5% DMSO. It is filed as biochemical. From the text:
This test uses active PTK2 enzyme (Invitrogen Code PV3832) and poly-Glu-Tyr (4:1, Sigma P-0275) as the kinase substrate. The kinase activity is detected by means of the phosphorylation of the substrate in a DELFIA™ assay. The phosphorylated substrate is detected with the europium-labelled phosphotyrosine antibody PT66 (Perkin Elmer, No.: AD0040).
In order to determine concentration-activity curves with PTK2-inhibitors the compounds are serially diluted first of all in 10% DMSO/H2O and then in kinase dilution buffer (20 mM TRIS/HCl pH 7.5, 0.1 mM EDTA, 0.1 mM EGTA, 0.286 mM sodium orthovanadate, 10% glycerol with the addition of freshly prepared BSA (fraction V, 1 mg/mL) and DTT (1 mM)) and 10 μL of each dilution are dispensed per well in a 96-well microtitre plate (clear U-shaped base plate, Greiner No. 650101) (the inhibitors are tested in duplicates) and mixed with 10 μL/well of PTK2 kinase (0.01 μg/well). PTK2 kinase is diluted accordingly beforehand with kinase dilution buffer. The diluted PTK2 inhibitor and the PTK2 kinase are pre-incubated for 1 h at RT and shaken at 500 revolutions per min. Then 10 μL/well poly-Glu-Tyr substrate (25 μg/well poly-Glu-Tyr, 0.05 μg/well biotinylated poly-Glu-Tyr dissolved in 250 mM TRIS/HCl pH 7.5, 9 mM DTT) are added. The reaction is started by the addition of 20 μL of ATP Mix (30 mM TRIS/HCl pH 7.5, 0.02% Brij, 0.2 mM sodium orthovanadate, 10 mM magnesium acetate, 0.1 mM EGTA, 1× phosphatase inhibitor cocktail 1 (Sigma, No.: P2850), 50 μM ATP (Sigma, No.: A3377; 15 mM stock solution))—the final concentration of DMSO is 0.5%. After 1 h kinase reaction (the plates are shaken at 500 rpm), the reaction is stopped by the addition of 12 μL/well of 100 mM EDTA, pH 8, and shaken for a further 5 min at RT (500 U/min). 55 μL of the reaction mixture are transferred into a streptavidin plate (Strepta Well High Bind (transparent, 96-well) made by Roche, No.: 11989685001) and incubated for 1 h at RT (shaking at 500 rpm). Then the microtitre plate is washed five times with 200 μL/well D-PBS (Invitrogen, No. 14190). 100 μL of a solution containing DELFIA Eu-N1 Anti-Phosphotyrosine PT66 antibody (Perkin Elmer, No.: AD0040, diluted 1:9000 in DELFIA test buffer (Perkin Elmer, No.: 1244-111)) is then added and it is incubated for 1 h at RT (shaking at 500 rpm). Then the plate is washed five times with 200 μL/well DELFIA washing buffer (Perkin Elmer, No.: 1244-114), 200 μL/well strengthening solution (Perkin Elmer, No.: 1244-105) is added and the whole is incubated for 10 min at RT (shaking at 300 rpm).
The time-delayed europium fluorescence is then measured in a microtitre plate reader (Victor, Perkin Elmer). The positive control consists of wells that contain solvent (0.5% DMSO in test buffer) and display uninhibited kinase activity. Wells that contain test buffer instead of enzyme act as a control for the background kinase activity.
The IC50 values are determined from concentration-activity analyses by iterative calculation using a sigmoid curve analysis algorithm (FIFTY, based on Graph PAD Prism Version 3.03) with a variable Hill coefficient.

Experiment [1] has as its target T2, Xenopus laevis Aurora B/INCENP complex (Xenopus laevis, UniProt Q6DE08).
T2 construct: equipped at the N-terminal position with a GST tag (amino acids 60-361); GST (N, cleaved yes); made in house; host or cells: E. coli BL21 (DE3)
The experiment is described as follows: Aurora-B kinase assay (radioactive enzyme inhibition). It is filed as biochemical. The text has this:
A radioactive enzyme inhibition assay was developed using E. coli-expressed recombinant Xenopus laevis Aurora B wild-type protein equipped at the N-terminal position with a GST tag (amino acids 60-361) in a complex with Xenopus laevis INCENP (amino acids 790-847), which is obtained from bacteria and purified. In equivalent manner a Xenopus laevis Aurora B mutant (G96V) in a complex with Xenopus laevis INCENP^790-847 may also be used.
The coding sequence for Aurora-B^60-361 from Xenopus laevis is cloned into a modified version of pGEX-6T (Amersham Biotech) via BamHI and SalI cutting sites. The vector contains two cloning cassettes which are separated by a ribosomal binding site, allowing bi-cistronic expression. In this configuration Xenopus laevis Aurora B is expressed by the first cassette, and the Xenopus laevis INCENP^790-847 is expressed by the second cassette. The resulting vector is pAUB-IN^847.
First of all the E. coli strain BL21 (DE3) is co-transformed with pUBS520 helper plasmid and pAUB-IN^847, after which protein expression is induced using 0.3 mM IPTG at an OD600 of 0.45-0.7. The expression is then continued for approx. 12-16 h at 23-25° C. with agitation.
The bacteria are then removed by centrifuging and the pellet is lysed in lysis buffer (50 mM Tris/Cl pH 7.6, 300 mM NaCl, 1 mM DTT, 1 mM EDTA, 5% glycerol, Roche Complete Protease Inhibitor tablets) using ultrasound, using 20-30 mL lysis buffer per litre of E. coli culture. The lysed material is freed from debris by centrifugation (12000 rpm, 45-60 min, JA20 rotor). The supernatant is incubated with […] of equilibrated GST Sepharose Fast Flow (Amersham Biosciences) per litre of E. coli culture for 4-5 h at 4° C. Then the column material is washed with 30 volumes of lysis buffer and then equilibrated with 30 volumes of cleavage buffer (50 mM Tris/Cl pH 7.6, 150 mM NaCl, 1 mM DTT, 1 mM EDTA). To cleave the GST tag from Aurora B, 10 units of Prescission Protease (Amersham Biosciences) are used per milligram of substrate and the mixture is incubated for 16 h at 4° C. The supernatant which contains the cleavage product is loaded onto a 6 mL Resource Q column (Amersham Biosciences) equilibrated with ion exchange buffer (50 mM Tris/Cl pH 7.6, 150 mM NaCl, 1 mM DTT, 1 mM EDTA). The Aurora B/INCENP complex is caught as it flows through, then concentrated and loaded onto a Superdex 200 size exclusion chromatography (SEC) column equilibrated with SEC buffer (10 mM Tris/Cl pH 7.6, 150 mM NaCl, 1 mM DTT, 1 mM EDTA). Fractions which contain the AuroraB/INCENP complex are collected and concentrated using Vivaspin concentrators (molecular weight exclusion 3000-5000 Da) to a final concentration of 12 mg/mL. Aliquots (e.g. 240 ng/μL) for kinase assays are transferred from this stock solution into freezing buffer (50 mM Tris/Cl pH 8.0, 150 mM NaCl, 0.1 mM EDTA, 0.03% Brij-35, 10% glycerol, 1 mM DTT) and stored at −80° C.
Test substances are placed in a polypropylene dish (96 wells, Greiner #655 201), in order to cover a concentration frame of 10 μM-0.0001 μM. The final concentration of DMSO in the assay is 5%. 30 μL of protein mix (50 mM Tris/Cl pH 7.5, 25 mM MgCl2, 25 mM NaCl, 167 μM ATP, 10 ng Xenopus laevis Aurora B/INCENP complex in freezing buffer) are pipetted into the 10 μl of test substance provided in 25% DMSO and this is incubated for 15 min at RT. Then 10 μL of peptide mix (100 mM Tris/Cl pH 7.5, 50 mM MgCl2, 50 mM NaCl, 5 μM NaF, 5 μM DTT, 1 μCi gamma-P33-ATP [Amersham], 50 μM substrate peptide [biotin-EPLERRLSLVPDS or multimers thereof, or biotin-EPLERRLSLVPKM or multimers thereof, or biotin-[…]]) are added. The reaction is incubated for 75 min (ambient temperature) and stopped by the addition of 180 μL of 6.4% trichloroacetic acid and incubated for 20 min on ice. […]

T1 sequence (Q05397 whole entry): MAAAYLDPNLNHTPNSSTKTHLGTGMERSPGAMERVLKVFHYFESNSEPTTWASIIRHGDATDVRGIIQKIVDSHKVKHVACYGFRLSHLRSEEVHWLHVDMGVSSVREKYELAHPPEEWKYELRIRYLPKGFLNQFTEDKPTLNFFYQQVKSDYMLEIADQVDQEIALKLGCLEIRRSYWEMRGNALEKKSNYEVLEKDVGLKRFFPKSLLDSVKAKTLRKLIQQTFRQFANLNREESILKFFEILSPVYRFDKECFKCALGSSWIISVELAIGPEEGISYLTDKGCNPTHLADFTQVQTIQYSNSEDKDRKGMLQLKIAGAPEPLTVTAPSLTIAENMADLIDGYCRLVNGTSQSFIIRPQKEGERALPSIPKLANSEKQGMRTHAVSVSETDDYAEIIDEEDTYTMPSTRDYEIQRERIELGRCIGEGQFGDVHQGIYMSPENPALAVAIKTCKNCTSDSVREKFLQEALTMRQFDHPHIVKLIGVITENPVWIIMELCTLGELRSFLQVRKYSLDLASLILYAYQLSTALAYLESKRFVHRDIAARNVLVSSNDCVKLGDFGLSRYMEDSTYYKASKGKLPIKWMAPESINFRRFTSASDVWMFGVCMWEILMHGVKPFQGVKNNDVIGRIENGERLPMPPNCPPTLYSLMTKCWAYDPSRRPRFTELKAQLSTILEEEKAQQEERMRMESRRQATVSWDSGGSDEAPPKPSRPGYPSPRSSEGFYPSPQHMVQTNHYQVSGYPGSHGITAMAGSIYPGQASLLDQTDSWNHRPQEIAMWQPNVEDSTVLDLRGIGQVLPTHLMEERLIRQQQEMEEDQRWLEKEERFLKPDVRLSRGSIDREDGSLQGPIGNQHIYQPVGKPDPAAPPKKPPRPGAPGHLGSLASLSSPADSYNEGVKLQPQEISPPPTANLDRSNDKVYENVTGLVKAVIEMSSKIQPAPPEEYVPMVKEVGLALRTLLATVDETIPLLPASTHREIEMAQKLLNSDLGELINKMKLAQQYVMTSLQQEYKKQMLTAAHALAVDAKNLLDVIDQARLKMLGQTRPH
T2 sequence (Q6DE08 60-361): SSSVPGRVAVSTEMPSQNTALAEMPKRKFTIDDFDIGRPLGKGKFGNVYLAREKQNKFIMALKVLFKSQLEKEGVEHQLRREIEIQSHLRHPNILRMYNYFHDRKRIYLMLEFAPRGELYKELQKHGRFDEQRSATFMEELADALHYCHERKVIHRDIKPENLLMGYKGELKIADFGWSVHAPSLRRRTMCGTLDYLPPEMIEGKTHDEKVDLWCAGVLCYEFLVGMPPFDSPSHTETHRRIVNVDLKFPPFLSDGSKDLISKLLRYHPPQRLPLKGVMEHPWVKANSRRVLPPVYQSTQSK
T2 sequence (O13024 790-847 partner): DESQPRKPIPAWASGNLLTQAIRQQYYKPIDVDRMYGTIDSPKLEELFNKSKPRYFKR

In general, IC50 refers to the midpoint of a concentration-inhibition curve. As to `COc1cc(N2CCN(C(C)(C)C)CC2)c(C)cc1Nc1ncc(C(F)(F)F)c(N[C@@H]2CCCC[C@H]2N(C)S(C)(=O)=O)n1` [Example I-158], the concentration for half-maximal inhibition (IC50) was 1 nM at PTK2 enzyme and greater than 10000 nM in experiment [1].
The matching figures for `COc1cc(C(=O)NC2CCOCC2)c(C)cc1Nc1ncc(C(F)(F)F)c(N[C@@H]2CCC[C@H]2NS(C)(=O)=O)n1` [Example I-195]: 0.32 nM and 641 nM.
Regarding `COc1cc(C(=O)NC2CCN(C)CC2)c(F)cc1Nc1ncc(Br)c(N[C@@H]2CCC[C@H]2N(C)S(C)(=O)=O)n1` [Example I-142], the IC50 stood at 0.5 nM at PTK2 enzyme and 311 nM in experiment [1].
Taken in the same sequence, the figures for `COCCN1CCC(NC(=O)c2cc(OC)c(Nc3ncc(Cl)c(N[C@@H]4CCC[C@H]4N(C)S(C)(=O)=O)n3)cc2Cl)CC1` [Example I-166] were 0.49 nM and 1140 nM.
The matching figures for `COc1cc(N2CCN(C(C)(C)C)CC2)c(C)cc1Nc1ncc(C(F)(F)F)c(N[C@@H]2CCC[C@H]2N(C)S(C)(=O)=O)n1` [Example I-140]: 0.86 nM and greater than 5000 nM.
The matching figures for `CNC(=O)c1cc(OC)c(Nc2ncc(C(F)(F)F)c(N[C@@H]3CCCC[C@H]3NS(C)(=O)=O)n2)cc1Cl` [Example I-137]: 0.44 nM and 1070 nM.
In the case of `CCc1cc(Nc2ncc(C(F)(F)F)c(N[C@@H]3CCC[C@H]3N(C)S(C)(=O)=O)n2)c(OC)cc1N1CCNCC1` [Example I-153], the results for the IC50 (on PTK2 enzyme; in experiment [1]) were 0.69 nM and greater than 10000 nM, respectively.
Taken in the same sequence, the figures for `COc1cc(NC(=O)[C@H]2CCCN2C)ccc1Nc1ncc(C(F)(F)F)c(N[C@@H]2CCCC[C@H]2N(C)S(C)(=O)=O)n1` [Example I-146] were 0.58 nM and 413 nM.
Taken in the same sequence, the figures for `COc1cc(NC(=O)C2CCN(C)CC2)ccc1Nc1ncc(C(F)(F)F)c(N[C@@H]2CCCC[C@H]2N(C)S(C)(=O)=O)n1` [Example I-155] were 0.93 nM and 245 nM.
The matching figures for `COc1cc(C(=O)NC2CCN(C)CC2)c(Cl)cc1Nc1ncc(C(F)(F)F)c(N[C@@H]2CCC[C@H]2N(C)S(C)(=O)=O)n1` [Example I-131]: 0.29 nM and 1010 nM.
Regarding `CNC(=O)c1cc(OC)c(Nc2ncc(C(F)(F)F)c(N[C@@H]3CCCC[C@H]3NS(C)(=O)=O)n2)cc1C` [Example I-152], the values for the IC50 (at PTK2 enzyme; in experiment [1]) were 0.41 nM and 1590 nM, respectively.
The matching figures for `COc1cc(N2CCNCC2)c(Cl)cc1Nc1ncc(C(F)(F)F)c(N[C@@H]2CCC[C@H]2N(C)S(C)(=O)=O)n1` [Example I-134]: 0.5 nM and 778 nM.

The values are drawn from patent publication US20110071158A1, “NEW COMPOUNDS” (BOEHRINGER INGELHEIM INTERNATIONAL GMBH, priority 2009, published 2011).
